Measurements: patent publication US5594012A, “Amino acid derivatives and anti-active oxygen agents” (Ajinomoto Co., Inc., priority 1992, dated 1997)

Columns and labels:
[1] = system: lipid peroxidation in homogenate of murine swiss 3T3 cells; experiment: Inhibitory effects on UV-induced lipid peroxidation (homogenate of murine swiss 3T3 cells); assay type: biochemical; conditions: 1 mM test compound; UVB 0.4 mW/cm^2, 90 min; pH 7.2 to 7.8; TBA, 535 nm
Description: Test for Inhibitory Effects on UV-induced Lipid Peroxidation
The test was carried out on the basis of the methods described in Biochim. Biophys. […] Namely, 12 μl of an aqueous sodium hydroxide solution of each of the test compounds shown in Table 5 below was added to 1.2 ml of a homogenate of murine swiss 3T3 cells (i.e. a kind of murine skin cells) prepared by a conventional method in 20 mM phosphate buffer (protein content: 1.5 to 1.8 mg/ml). The final concentration of the test compounds was adjusted to be 1 mM and the pH of the solution was adjusted to 7.2 to 7.8. If test compounds were not soluble in an aqueous sodium hydroxide solution, they were dissolved in N,N-dimethyl sulfoxide (DMSO).
This solution (1.1 ml) was irradiated with UV rays (0.4 mW/cm^2, 90 min.) using a UVB lamp "EB-280C/J" (manufactured by Spectronics). To an aliquot (1.0 ml) of this solution were successively added 0.2 ml of an aqueous solution of sodium dodecyl sulfate and 1.0 ml of an aqueous solution of thiobarbituric acid/trichloroacetic acid/hydrochloric acid, and the mixed solution was heated in a boiling water bath for 15 minutes. After ice-cooling, the solution was extracted with 1.0 ml of 1-butanol to prepare a sample for determining peroxide lipid as absorbance at a wavelength of 535 nm using a spectrophotometer "Model 320" (manufactured by Hitachi).
(§1) [formula] A1 : Absorbance when a test compound was added. A2 : Absorbance when a test compound was not added.
A3 : Absorbance when a test compound was not added and UV rays were not irradiated.

[2] = system: lipid peroxidation in murine brain homogenate; experiment: Inhibitory effects on lipid peroxidation (murine brain homogenate); assay type: biochemical, murine (C57 black mouse); conditions: 30 μM test compound; no added iron; 37° C., 60 minutes; pH 7.2 to 7.8
Description: (§2) The test was carried out according to the method described in Method in Enzymol., Vol. 52, page 302, 1978. A C57 black mouse was killed by cervical dislocation, and the whole brain extracted from the dissected head was washed with 20 mM phosphate buffer (hereinafter referred to as "PBS-2"). Then, the brain was added with PBS-2 in an amount of 19 times its wet weight, and the mixture was disrupted and homogenized with a homogenizer "Polytron" (manufactured by Kinematica). The thus prepared 5% solution of the murine brain homogenate in PBS-2 was diluted 1:5 with fresh PBS-2. To 800 μl of the resulting 1% solution of the murine brain homogenate in PBS-2 (protein content: 0.8 to 1.0 mg/ml) were successively added 100 μl of a PBS-2 solution of each of the test compounds shown in Table 7 below and 100 μl of an aqueous solution of ammonium iron (II) sulphate. The final concentration of the test compounds and ammonium iron (II) sulphate were adjusted to be 1 mM and 100 μM, respectively. If test compounds were not soluble in PBS-2 alone, an aqueous sodium hydroxide solution or DMSO was added. The pH of the solution was adjusted to 7.2 to 7.8.
Test for Inhibitory Effects on Lipid Peroxidation
To 900 μl of a 5% solution of the murine brain homogenate in PBS-2 prepared in the same way as described in Test Example 3 was added 100 μl of a PBS-2 solution of each of the test compounds shown in Table 8 below. The final concentration of the test compounds was adjusted to be 30 μM. If test compounds were not soluble in PBS-2 alone, an aqueous solution of sodium hydroxide or DMSO was added. The pH of the solution was adjusted to 7.2 to 7.8.
The solution after heated at 37° C. for 60 minutes was added with 1.0 ml of an aqeuous solution of thiobarbituric acid/trichloroacetic acid/hydrochloric acid, and the mixture was heated in a boiling water bath for 15 minutes. After ice-cooling, the solution was extracted with 2.0 ml of 1-butanol to prepare a sample for determining the lipid peroxide in the same way as described in Test Example 1. […] [formula] A4 : Absorbance when a test compound was added. A5 : Absorbance when a test compound was not added.
A6 : Abosrbance when a test compound was not added and heating at 37° C. for […] was not carried out.

[3] = system: lipid peroxidation in murine brain homogenate; experiment: Inhibitory effects on metal ion-induced lipid peroxidation (murine brain homogenate); assay type: biochemical, murine (C57 black mouse); conditions: 1 mM test compound; 100 μM ammonium iron (II) sulphate; 37° C., 30 minutes; pH 7.2 to 7.8
Description: Test for Inhibitory Effects on Metal Ion-induced Lipid Peroxidation
as §2
The solution after heated at 37° C. for 30 minutes was added with 2.0 ml of an aqueous solution of thiobarbituric acid/trichloroacetic acid/hydrochloric acid, and the mixture was heated in a boiling water bath for 15 minutes. After ice-cooling, the solution was extracted with 1.0 ml of 1-butanol to prepare a sample for determining the peroxide lipid in the same way as described in Test Example 1.
as §1
A3 : Absorbance when a test compound was not added and heating at 37° C. for 30 minutes was not carried out.

## O=C(O)CN(CCN(CC(=O)O)CC(=O)O)CC(=O)O [EDTA, reference compound]
[1]
  % Inhibition of UV-induced lipid peroxidation: 34%

## O=C(O)CCC(NCc1ccccc1O)C(=O)O (stereo not shown) [Synthesis Example 5]
[1]
  % Inhibition of UV-induced lipid peroxidation: 52%

## CC(NCc1ccccc1O)C(=O)O (stereo not shown) [Synthesis Example 6]
[1]
  % Inhibition of UV-induced lipid peroxidation: 66%

## O=C(O)C(Cc1ccccc1)NCc1ccccc1O (stereo not shown) [Synthesis Example 7]
[1]
  % Inhibition of UV-induced lipid peroxidation: 48%

## CC(C)C(NCc1ccccc1O)C(=O)O (stereo not shown) [Synthesis Example 8]
[1]
  % Inhibition of UV-induced lipid peroxidation: 60%

## O=C(O)CNCc1ccccc1O [Synthesis Example 9]
[1]
  % Inhibition of UV-induced lipid peroxidation: 60%

## CC(O)C(NCc1ccccc1O)C(=O)O (stereo not shown) [Synthesis Example 10]
[1]
  % Inhibition of UV-induced lipid peroxidation: 56%

## NC(=O)CNCc1ccccc1O [Synthesis Example 11]
[1]
  % Inhibition of UV-induced lipid peroxidation: 77%

## O=C(O)CCNCc1ccccc1O [Synthesis Example 12]
[1]
  % Inhibition of UV-induced lipid peroxidation: 29%

## O=S(=O)(O)CCNCc1ccccc1O [Synthesis Example 13]
[1]
  % Inhibition of UV-induced lipid peroxidation: 53%

## OCCNCc1ccccc1O [Synthesis Example 14]
[1]
  % Inhibition of UV-induced lipid peroxidation: 45%

## Oc1ccccc1CNCCc1c[nH]cn1 [Synthesis Example 15]
[1]
  % Inhibition of UV-induced lipid peroxidation: 51%

## Cc1ncc(CO)c(CNC(C)C(=O)O)c1O (stereo not shown) [Synthesis Example 17]
[2]
  % Inhibition of lipid peroxidation: 56%

## Cc1ncc(CO)c(CNC(C(=O)O)C(C)O)c1O (stereo not shown) [Synthesis Example 19]
[2]
  % Inhibition of lipid peroxidation: 59%

## Cc1ncc(CO)c(CNC(CC(=O)O)C(=O)O)c1O (stereo not shown) [Synthesis Example 20]
[2]
  % Inhibition of lipid peroxidation: 91%

## Cc1ncc(CO)c(CNC(Cc2c[nH]cn2)C(N)=O)c1O (stereo not shown) [Synthesis Example 23]
[2]
  % Inhibition of lipid peroxidation: 39%

## Cc1ncc(CO)c(CNC(CCCNC(=N)N)C(=O)O)c1O (stereo not shown) [Synthesis Example 24]
[2]
  % Inhibition of lipid peroxidation: 85%

## O=C(O)C(Cc1ccc(O)c(O)c1)N=Cc1c(O)ccc2ccccc12 (stereo not shown) [Synthesis Example 32]
[3]
  % Inhibition of metal ion-induced lipid peroxidation: 83%

## OCC(Cc1c[nH]cn1)N=Cc1c(O)ccc2ccccc12 (stereo not shown) [Synthesis Example 33]
[3]
  % Inhibition of metal ion-induced lipid peroxidation: 95%

## O=C(O)CN=Cc1c(O)ccc2ccccc12 [Synthesis Example 34]
[3]
  % Inhibition of metal ion-induced lipid peroxidation: 57%

## NC(=O)CN=Cc1c(O)ccc2ccccc12 [Synthesis Example 35]
[3]
  % Inhibition of metal ion-induced lipid peroxidation: 16%

## CC(N=Cc1c(O)ccc2ccccc12)C(=O)O (stereo not shown) [Synthesis Example 36]
[3]
  % Inhibition of metal ion-induced lipid peroxidation: 80%

## CC(C)C(CO)N=Cc1c(O)ccc2ccccc12 (stereo not shown) [Synthesis Example 37]
[3]
  % Inhibition of metal ion-induced lipid peroxidation: 30%

## CC(C)CC(N=Cc1c(O)ccc2ccccc12)C(=O)O (stereo not shown) [Synthesis Example 38]
[3]
  % Inhibition of metal ion-induced lipid peroxidation: 74%

## CCC(C)C(N=Cc1c(O)ccc2ccccc12)C(=O)O (stereo not shown) [Synthesis Example 39]
[3]
  % Inhibition of metal ion-induced lipid peroxidation: 50%

## COC(=O)C(CO)N=Cc1c(O)ccc2ccccc12 (stereo not shown) [Synthesis Example 40]
[3]
  % Inhibition of metal ion-induced lipid peroxidation: 88%

## CC(O)C(N=Cc1c(O)ccc2ccccc12)C(=O)O (stereo not shown) [Synthesis Example 41]
[3]
  % Inhibition of metal ion-induced lipid peroxidation: 79%

## CSCCC(N=Cc1c(O)ccc2ccccc12)C(=O)O (stereo not shown) [Synthesis Example 42]
[3]
  % Inhibition of metal ion-induced lipid peroxidation: 86%

## O=C(O)CC(N=Cc1c(O)ccc2ccccc12)C(=O)O (stereo not shown) [Synthesis Example 43]
[3]
  % Inhibition of metal ion-induced lipid peroxidation: 40%

## NC(=O)CC(N=Cc1c(O)ccc2ccccc12)C(=O)O (stereo not shown) [Synthesis Example 44]
[3]
  % Inhibition of metal ion-induced lipid peroxidation: 90%

## COC(=O)C(Cc1c[nH]cn1)N=Cc1c(O)ccc2ccccc12 (stereo not shown) [Synthesis Example 45]
[3]
  % Inhibition of metal ion-induced lipid peroxidation: 85%

## Oc1ccc2ccccc2c1C=NCCc1c[nH]cn1 [Synthesis Example 46]
[3]
  % Inhibition of metal ion-induced lipid peroxidation: 80%

## COC(=O)CCC(N=Cc1c(O)ccc2ccccc12)C(=O)OC (stereo not shown) [Synthesis Example 49]
[3]
  % Inhibition of metal ion-induced lipid peroxidation: 81%

## O=C(CCC(N=Cc1c(O)ccc2ccccc12)C(=O)O)NO (stereo not shown) [Synthesis Example 50]
[3]
  % Inhibition of metal ion-induced lipid peroxidation: 85%

## NC(=O)CCC(N=Cc1c(O)ccc2ccccc12)C(=O)O (stereo not shown) [Synthesis Example 51]
[3]
  % Inhibition of metal ion-induced lipid peroxidation: 84%

## O=C(O)C(Cc1ccccc1)N=Cc1c(O)ccc2ccccc12 (stereo not shown) [Synthesis Example 54]
[3]
  % Inhibition of metal ion-induced lipid peroxidation: 83%

## O=C(O)C(Cc1c[nH]c2ccccc12)N=Cc1c(O)ccc2ccccc12 (stereo not shown) [Synthesis Example 55]
[3]
  % Inhibition of metal ion-induced lipid peroxidation: 87%

## Oc1ccc2ccccc2c1C=NCCc1c[nH]c2ccccc12 [Synthesis Example 56]
[3]
  % Inhibition of metal ion-induced lipid peroxidation: 57%

## O=C(O)C(CO)N=Cc1cc(Cl)ccc1O (stereo not shown) [Synthesis Example 57]
[3]
  % Inhibition of metal ion-induced lipid peroxidation: 44%

## O=C(O)C(CO)N=Cc1cc(Br)ccc1O (stereo not shown) [Synthesis Example 58]
[3]
  % Inhibition of metal ion-induced lipid peroxidation: 40%

## O=C(O)C(CO)N=Cc1cc([N+](=O)[O-])ccc1O (stereo not shown) [Synthesis Example 59]
[3]
  % Inhibition of metal ion-induced lipid peroxidation: 11%

## O=C(O)C(Cc1c[nH]cn1)N=Cc1cc(Cl)ccc1O (stereo not shown) [Synthesis Example 61]
[3]
  % Inhibition of metal ion-induced lipid peroxidation: 45%

## O=C(O)C(Cc1c[nH]cn1)N=Cc1cc(Br)ccc1O (stereo not shown) [Synthesis Example 62]
[3]
  % Inhibition of metal ion-induced lipid peroxidation: 45%

## COc1cccc(C=NC(Cc2c[nH]cn2)C(=O)O)c1O (stereo not shown) [Synthesis Example 63]
[3]
  % Inhibition of metal ion-induced lipid peroxidation: 60%

## CC(C)C(N=Cc1cc(Cl)ccc1O)C(=O)O (stereo not shown) [Synthesis Example 64]
[3]
  % Inhibition of metal ion-induced lipid peroxidation: 60%

## O=S(=O)(O)CCN=Cc1c(O)ccc2ccccc12 [Synthesis Example 65]
[3]
  % Inhibition of metal ion-induced lipid peroxidation: 73%

## O=C(O)CNC(=O)CN=Cc1c(O)ccc2ccccc12 [Synthesis Example 66]
[3]
  % Inhibition of metal ion-induced lipid peroxidation: 20%

## COC(=O)C(Cc1ccccc1)NC(=O)C(CC(=O)O)N=Cc1c(O)ccc2ccccc12 (stereo not shown) [Synthesis Example 67]
[3]
  % Inhibition of metal ion-induced lipid peroxidation: 38%

## CCC(C)C(N=Cc1c(CO)cnc(C)c1O)C(=O)O (stereo not shown) [Synthesis Example 72]
[3]
  % Inhibition of metal ion-induced lipid peroxidation: 14%
